According to patent US5935973A, “Heterocyclcarboxamide derivatives and their use as therapeutic agents” (Knoll Aktiengesellschaft, priority 1995, dated 1999):

Key:
5-HT1A receptors = target: T1, 5-HT1A receptors (Rattus norvegicus, UniProt P19327); assay: inhibition of [3H]8-OH-DPAT binding to 5-HT1A receptors in rat hippocampal tissue; details: rat hippocampus, [3H]8-OH-DPAT 2 nM, 25° C., 30 min
T1 construct: Hippocampal tissue from the brains of male Sprague-Dawley rats; from tissue; host or cells: rat hippocampus membranes
T1 sequence (P19327 1-422): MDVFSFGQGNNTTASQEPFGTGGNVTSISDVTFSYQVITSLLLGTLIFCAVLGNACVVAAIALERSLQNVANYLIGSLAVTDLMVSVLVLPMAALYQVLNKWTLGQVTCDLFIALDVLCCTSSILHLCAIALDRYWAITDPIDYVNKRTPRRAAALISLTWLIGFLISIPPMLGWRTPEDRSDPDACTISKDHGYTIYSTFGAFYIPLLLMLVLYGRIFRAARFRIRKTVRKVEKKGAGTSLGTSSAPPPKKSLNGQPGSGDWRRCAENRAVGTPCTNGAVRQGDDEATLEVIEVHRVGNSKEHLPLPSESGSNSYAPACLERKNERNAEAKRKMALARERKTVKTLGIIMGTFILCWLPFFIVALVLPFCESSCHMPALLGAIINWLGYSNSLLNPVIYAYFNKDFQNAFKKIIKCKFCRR
Procedure, shortened: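 Male Sprague-Dawley rat hippocampal membranes in 50 mM Tris-HCl, pH 7.7, with 4 mM CaCl2, 0.1% ascorbate and 10 µM pargyline were incubated 30 min at 25 °C with [3H]8-OH-DPAT (2 nM as added), then filtered. Compounds were screened at 10^-6 M (as added). Curves were run for those giving ≥50% displacement, and IC50 was converted to Ki using ligand concentration and KD.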

α2A-adrenoceptors = target: T2, α2A-adrenoceptors (Homo sapiens, UniProt P08913); assay: inhibition of tritiated RX 821002 binding to α2A-adrenoceptors in human cerebral cortex; details: at 10^-6 M, tritiated RX 821002, read-out: % displacement of radio ligand, α2A
T2 construct: Human cerebral cortex obtained at post-mortem; from tissue; host or cells: human post-mortem cerebral cortex membranes
T2 sequence (P08913 1-465): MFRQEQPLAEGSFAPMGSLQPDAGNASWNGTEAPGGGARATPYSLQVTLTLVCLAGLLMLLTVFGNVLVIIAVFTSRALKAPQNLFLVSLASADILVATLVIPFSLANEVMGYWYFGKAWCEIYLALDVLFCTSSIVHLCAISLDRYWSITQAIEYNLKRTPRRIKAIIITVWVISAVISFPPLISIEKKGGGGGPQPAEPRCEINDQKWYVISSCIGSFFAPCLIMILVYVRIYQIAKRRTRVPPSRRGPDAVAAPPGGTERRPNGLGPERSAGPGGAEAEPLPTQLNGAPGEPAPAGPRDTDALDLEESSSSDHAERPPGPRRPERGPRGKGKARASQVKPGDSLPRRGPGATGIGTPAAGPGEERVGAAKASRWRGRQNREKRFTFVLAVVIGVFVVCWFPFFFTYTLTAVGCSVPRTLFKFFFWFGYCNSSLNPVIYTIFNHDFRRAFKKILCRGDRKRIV
Description: Human cerebral cortex obtained at post-mortem was homogenised in ice-cold 0.25M sucrose (1:30 w/v) and centrifuged at 1,000 g at 4° C. for 12 minutes. The supernatant was stored on ice and the pellet was rehomogenised in 0.25M sucrose (1:15 w/v) and centrifuged at 850 g at 4° C. for 12 minutes. Combined supernatants were diluted with 5mM Tris-HCl (pH 7.5) containing 5 mM ethylenediamine tetraacetic acid (EDTA), readjusted to pH 7.5 (at 25° C.) with 1M sodium hydroxide to 1:80 w/v, and centrifuged at 11,000 g at 4° C. for 10 minutes. The resulting pellet was resuspended in 50 mM Tris-HCl (pH 7.5) containing 5.68 mM L-ascorbic acid and 0.5 mM EDTA, readjusted to pH 7.5 (at 25° C.) with 1 M sodium hydroxide to 1:80 w/v, and centrifuged at 11,000 g for 10 minutes. The pellet was stored at -80° C. On the day of the assay the pellet was thawed, resuspended in 50 mM Tris-HCl (pH 7.5) containing 5.68 mM L-ascorbic acid and 5 mM EDTA to 1:80 w/v and centrifuged at 11,000 g for 10 minutes. The final pellet was resuspended in 50 mM Tris-HCl (pH 7.5) containing 5.68 mM L-ascorbic acid and 5 mM EDTA (equivalent to 25 mg wet weight of tissue/ml).
Aliquots (400 μl; equivalent to 10 mg wet weight of tissue/tube) of this suspension were added to tubes containing the ligand (50 μl; 0.2 nM) and distilled water (50 μl; total binding) or phentolamine (50 μl; 50 μM; non-specific binding) or test compound (50 μl; at a single concentration of 10^-6 M or at 10 concentrations ranging from 10^-11 -10^-3 M). The ligand was tritiated RX 821002 (2-(2-methoxy-1,4-[6,7(n)-^3 H]benzodioxan-2-yl)-2-imidazoline) and the mixture was incubated at 0° C. for 75 minutes before the incubation was terminated by rapid filtration.
The filters were washed with ice-cold Tris-HCl buffer and dried. The filters were punched out into vials, scintillation fluid added and radioactivity determined by liquid scintillation counting. The percentage displacement of specific binding of the tritiated ligand was calculated for the single concentration (10^-6 M) of test compound. Displacement curves were then produced for those compounds which displaced ≥50% of specific binding of the tritiated ligand at 10^-6 M using a range of concentrations of the compound. The concentration which gave 50% inhibition of specific binding (IC50)was obtained from the curve. The inhibition coefficient Ki was then calculated using the formula [formula] in which [ligand] is the concentration of the tritiated ligand used and KD is the equilibrium dissociation constant for the ligand.

Row | Compound | Ki (5-HT1A receptors) | inhibition at 1 µM (α2A-adrenoceptors)
1 | O=C(NCC1CCN(C[C@H]2COc3ccc(Cl)cc3O2)CC1)c1cccnc1 [Example 22, (S)-N-{[1-(7-chloro-1,4-benzodioxan-2-ylmethyl)-4-piperidyl]methyl}pyridine-3-carboxamide] | 35 nM | 99%
2 | O=C(NCC1CCN(C[C@H]2COc3ccc(Cl)cc3O2)CC1)c1cccc2cccnc12 [Example 23, (S)-N-{[1-(7-chloro-1,4-benzodioxan-2-ylmethyl)-4-piperidyl]methyl}quinoline-8-carboxamide] | 70 nM | 98%
